Assay: Case report: with autism given ibuprofen for children during a 7-day fever
Assay type: in vivo, human
Conditions: one child, ibuprofen about 30-40 mg/kg throughout 7 days
From the text: Subject […] was born […], and developed normally until reaching […] (the “regression time”). […] The […] developed autistic symptoms after the regression time, such as ceasing to respond to their name and losing the skills they had attained so far as their neurological health progressively deteriorated. At or about the same time of the regression time, the […] also developed other medical problems including Vitiligo. After an evaluation, a therapist from the Early Child Intervention Program advised the parents that the child had red flags for autism. Following a viral and bacterial infection […], the […]'s autistic symptoms became severe. The […] was officially diagnosed with autism by a developmental pediatrician, and qualified for the Preschool Program for Children With Disabilities (PPCD). While in the PPCD program, the […] was evaluated by a speech therapist who diagnosed them with severe speech impairments. A video of the child showing severe autistic symptoms is available at http://www.youtube.com/watch?v=GbEeNJgaIQQ. When the child turned […] they developed another viral infection and developed a high fever that lasted over 7 days. […] They were more aware, calm and was saying more words. […] Gastrointestinal problems caused by the ibuprofen soon surfaced, however. […]

Compound: CC(C)Cc1ccc(C(C)C(=O)O)cc1 (centres unmarked) [ibuprofen]
- autistic symptoms while under ibuprofen (autism, viral infection with fever): autistic symptoms decreased
- gastrointestinal side effects of ibuprofen (little food intake): gastrointestinal lesions and ulcers caused by the ibuprofen

Source: US20120237482A1, “METHODS FOR TREATMENT OF NEUROLOGICAL DISORDERS BY MODULATION OF MICROGLIAL ACTIVATION” (priority 2011, published 2012)
